Data from patent US12377107B2, “NT5C2 inhibitors for the treatment of chemotherapy-resistant acute lymphoblastic leukemia” (THE TRUSTEES OF COLUMBIA UNIVERSITY IN THE CITY OF NEW YORK, priority 2019, dated 2025).

What was measured:
NT5C2 = NT5C2 (Homo sapiens, UniProt P49902, R367Q); assay: NT5C2 inhibition test (malachite green based assay detecting free inorganic phosphate); type: biochemical
[1] = Dissolution of compound for NT5C2 inhibition test; type: physicochemical
[2] = test system: NT5C2 R367Q mutant mouse lymphoblasts; assay: Cell viability of NT5C2 R367Q mutant mouse lymphoblasts in combination with 6-MP; type: cell-based; settings: for synergy with 6-MP to decrease cell viability: combination with 6-mercaptopurine, dose-dependent
Source text: Various embodiments relate to the synthesis and characterization of NT5C2 inhibitors, HTP47 and HTP48, for treatment of chemotherapy resistant T-ALL.
[drawing 5] • to decrease cell viability of NT5C2 R367Q mutant mouse lymphoblasts. As such, various embodiments may be used in combination with existing chemotherapies to treat T-ALL and relapsed T-ALL.
Various embodiments relate to ongoing in vitro and in vivo functional characterization and development of optimized inhibitors. […] Control experiment were performed for dose optimization of HTP47 and HTP48 in C2-2 NT5C2 WT mouse lymphoblasts. […] Synthesis reactions for HTP47 and HTP48 are also provided.

Chain of NT5C2 (P49902 whole entry R367Q): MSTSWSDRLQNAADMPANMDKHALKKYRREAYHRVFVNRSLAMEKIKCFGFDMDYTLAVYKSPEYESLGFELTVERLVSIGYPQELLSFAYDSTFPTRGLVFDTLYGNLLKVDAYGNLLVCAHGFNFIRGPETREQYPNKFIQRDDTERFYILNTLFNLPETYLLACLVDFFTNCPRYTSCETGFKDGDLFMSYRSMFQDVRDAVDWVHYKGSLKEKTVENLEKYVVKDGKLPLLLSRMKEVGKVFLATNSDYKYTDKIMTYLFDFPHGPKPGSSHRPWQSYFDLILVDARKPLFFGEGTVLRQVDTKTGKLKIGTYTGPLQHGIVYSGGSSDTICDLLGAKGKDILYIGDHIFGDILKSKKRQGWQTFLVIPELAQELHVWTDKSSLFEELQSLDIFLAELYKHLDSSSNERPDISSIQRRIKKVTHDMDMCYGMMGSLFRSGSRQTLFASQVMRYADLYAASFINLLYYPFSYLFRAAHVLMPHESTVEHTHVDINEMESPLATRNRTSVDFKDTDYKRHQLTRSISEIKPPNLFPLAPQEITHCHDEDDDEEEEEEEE

NT5C2 inhibitory activity (NT5C2; assay format not given) | NT5C2 inhibitory activity (NT5C2; malachite green based assay) | SMILES | other results
no NT5C2 inhibition activity |  | CC1(CO)CCN(C(=O)c2c[nH]c(=O)c3ccccc23)CC1 [Formula 35] | 
no NT5C2 inhibition activity |  | CCC1(CC)CCN(C(=O)c2c[nH]c(=O)c3ccccc23)CC1 [Formula 36] | 
no NT5C2 inhibition activity |  | CNC1CCN(C(=O)c2c[nH]c(=O)c3ccccc23)CC1 [Formula 37] | 
no NT5C2 inhibition activity |  | NCC1CCCN(C(=O)c2c[nH]c(=O)c3ccccc23)C1 (centres unmarked) [Formula 39] | 
have NT5C2 inhibitory activity | NT5C2 inhibitory activity | NC(=O)c1c(NC(=O)c2ccc3[nH]cnc3c2)sc2c1CCCC2 [HTP2] | 
have NT5C2 inhibitory activity |  | N#Cc1c(NC(=O)c2ccc3[nH]cnc3c2)sc2c1CCCC2 [HTP22] | 
have NT5C2 inhibitory activity |  | NC(=O)c1c(NC(=O)c2ccc3[nH]cnc3c2)sc2c1CCC2 [HTP41] | 
have NT5C2 inhibitory activity | NT5C2 inhibitory activity | Cc1nc2nc(C(=O)Nc3sc4c(c3C(N)=O)CCCC4)ccc2[nH]1 [HTP47] | potency of 6-MP in combination, comparison of HTP47 and HTP48 ([2]; combination with 6-MP): greater potency of 6-MP in combination with HTP47 compared to HTP48; synergy with 6-MP to decrease cell viability [2]: act synergistically with 6-MP in a dose-dependent manner
have NT5C2 inhibitory activity | NT5C2 inhibitory activity | Cn1cnc2cc(C(=O)Nc3sc4c(c3C(N)=O)CCCC4)ccc21 [HTP48] | synergy with 6-MP to decrease cell viability [2]: act synergistically with 6-MP in a dose-dependent manner

SMILES | NT5C2 inhibitory activity (NT5C2; assay format not given) | NT5C2 inhibitory activity (NT5C2; malachite green based assay) | other results
CC(C)CCNC(=O)c1c[nH]c(=O)c2ccccc12 [Formula 38] | no NT5C2 inhibition activity was observed |  | dissolution [1]: did not dissolve
